The target in the assay is Type-2 angiotensin II receptor (Sus scrofa). Description: Displacement of [125I]-Ang II from angiotensin II receptor type 2 in pig uterus myometrium. In general terms: Displacement assays read how much labelled ligand stays bound in the presence of the test substance.

The term Ki denotes the dissociation constant of the complex between target and ligand, obtained from inhibition or displacement. The low end stands for higher affinity, the high end for lower affinity.

Structures are written as SMILES.

`CC(C)[C@H](NC(=O)[C@H](CCCNC(=N)N)NC(=O)[C@@H](N)CC(=O)O)C(=O)Nc1cccc2c1N[C@@H](Cc1ccc(O)cc1)C(=O)N(CC(=O)N[C@@H](Cc1cnc[nH]1)C(=O)N1CCC[C@H]1C(=O)N[C@@H](Cc1ccccc1)C(=O)O)C2` [(3S)-3-amino-3-{[(1S)-1-{[(1S)-1-{[(2S)-4-({[(2S)-1-[(2S)-2-{[(1S)-1-carboxy-2-phenylethyl]carbamoyl}pyrrolidin-1-yl]-3-(1H-imidazol-4-yl)-1-oxopropan-2-yl]carbamoyl}methyl)-2-[(4-hydroxyphenyl)methyl]-3-oxo-2,3,4,5-tetrahydro-1H-1,4-benzodiazepin-9-yl]carbamoyl}-2-methylpropyl]carbamoyl}-4-[(diaminomethylidene)amino]butyl]carbamoyl}propanoic acid]: the Ki worked out at 0.8 nM.
The figure for `CC(C)[C@H](NC(=O)[C@H](C)NC(=O)[C@@H](N)CC(=O)O)C(=O)Nc1cccc2c1N[C@@H](Cc1ccc(O)cc1)C(=O)N(CC(=O)N[C@@H](Cc1cnc[nH]1)C(=O)N1CCC[C@H]1C(=O)N[C@@H](Cc1ccccc1)C(=O)O)C2` [(3S)-3-amino-3-{[(1S)-1-{[(1S)-1-{[(2S)-4-({[(2S)-1-[(2S)-2-{[(1S)-1-carboxy-2-phenylethyl]carbamoyl}pyrrolidin-1-yl]-3-(1H-imidazol-4-yl)-1-oxopropan-2-yl]carbamoyl}methyl)-2-[(4-hydroxyphenyl)methyl]-3-oxo-2,3,4,5-tetrahydro-1H-1,4-benzodiazepin-9-yl]carbamoyl}-2-methylpropyl]carbamoyl}ethyl]carbamoyl}propanoic acid] is 9.3 nM; for `N=C(N)NCCC[C@H](NC(=O)[C@@H](N)CC(=O)O)C(=O)Nc1cccc2c1N[C@@H](Cc1ccc(O)cc1)C(=O)N(CC(=O)N[C@@H](Cc1cnc[nH]1)C(=O)N1CCC[C@H]1C(=O)N[C@@H](Cc1ccccc1)C(=O)O)C2` [(3S)-3-amino-3-{[(1S)-1-{[(2S)-4-({[(2S)-1-[(2S)-2-{[(1S)-1-carboxy-2-phenylethyl]carbamoyl}pyrrolidin-1-yl]-3-(1H-imidazol-4-yl)-1-oxopropan-2-yl]carbamoyl}methyl)-2-[(4-hydroxyphenyl)methyl]-3-oxo-2,3,4,5-tetrahydro-1H-1,4-benzodiazepin-9-yl]carbamoyl}-4-[(diaminomethylidene)amino]butyl]carbamoyl}propanoic acid] it is 2.8 nM.

(Values after BindingDB's records for doi:10.1021/jm0491492 (Uppsala University, 2005).)
